The test system of one test is B. thailandensis E264. Nature of the test: microbe, parasite or virus in culture. It is filed as cell-based, Burkholderia thailandensis. Particulars: Burkholderia thailandensis, E264, read-out: MIC B. thailandensis E264.
For another test, the system named is P. aeruginosa ATCC 27853. As to the kind of experiment: MIC, selected panel of Gram-positive and Gram-negative strains (Example 5). Type of test: cell-based.
The next test deals with A. baumannii ATCC 19606. Described as above. It is filed as cell-based, Acinetobacter baumannii. The conditions noted are these: Acinetobacter baumannii, ATCC19606, read-out: MIC A. baumannii ATCC 19606.
The next test deals with S. aureus ATCC 25923. The description is as above. Type of test: cell-based. The conditions noted are these: Staphylococcus aureus, ATCC25923, read-out: MIC S. aureus ATCC 25923.
The subject of test [1] is S. aureus ATCC 43300 (MRSA, FQ-S). The description is as above. Type of test: cell-based, Staphylococcus aureus.
Test [2] deals with S. aureus BAA-1556 (USA300-Type MRSA, FQ-R). The description is as above. Type of test: cell-based, Staphylococcus aureus.
The next test concerns E. coli ATCC 25922. The description is as above. Type of test: cell-based, Escherichia coli.
Where [3] appears, read: Pseudomonas aeruginosa, ATCC27853, read-out: MIC P. aeruginosa ATCC 27853.
Setting [4] is: Staphylococcus aureus, read-out: MIC S. aureus ATCC 43300 (MRSA, FQ-S).
The mark [5] stands for this setting: Staphylococcus aureus, read-out: MIC S. aureus BAA-1556 (USA300-Type MRSA, FQ-R).
The mark [6] stands for this setting: Escherichia coli, ATCC25922, read-out: MIC E. coli ATCC 25922.
[7] abbreviates: Staphylococcus aureus; read-out: MIC S. aureus BAA-1556 (USA300-Type MRSA, FQ-R).

≈ marks a conversion by molar mass, not a printed value. Like-named read-outs stand apart in the source and are kept apart here.

Take `COc1c(-c2ccc(N)nc2)ccn2c(=O)c(C(=O)[O-])cc(C3CC3)c12.[K+]` [Compound 89K salt, potassium 8-(6-amino-pyridin-3-yl)-1-cyclopropyl-9-methoxy-4-oxo-4H-quinolizine-3-carboxylate]: the MIC in the test on B. thailandensis E264 was found to be 4 µg/mL; in the test with P. aeruginosa ATCC 27853 (setting [3]), 8 µg/mL; with A. baumannii ATCC 19606, 0.5 µg/mL; in the test with S. aureus ATCC 25923, 0.032 µg/mL; in test [1] (setting [4]) it was 0.032 µg/mL; in test [2] (setting [5]), 2 µg/mL.
As to `CC(=O)NCc1ccc(-c2ccn3c(=O)c(C(=O)[O-])cc(C4CC4)c3c2C)cc1.[K+]` [Compound 64K salt, potassium 8-(4-(Acetamidomethyl)phenyl)-1-cyclopropyl-9-methyl-4-oxo-4H-quinolizine-3-carboxylate], the MIC in the test with B. thailandensis E264 stood at 2 µg/mL; with P. aeruginosa ATCC 27853 (setting [3]), 8 µg/mL; with A. baumannii ATCC 19606 it was 0.5 µg/mL; with S. aureus ATCC 25923, 0.032 µg/mL; in test [1] (setting [4]), 0.032 µg/mL; in test [2] (setting [5]) it was 0.5 µg/mL.
Regarding `Cc1c(-c2ccc(CN)s2)ccn2c(=O)c(C(=O)[O-])cc(C3CC3)c12.[K+]` [Compound 13K salt, potassium 8-(5-(aminomethyl)thiophen-2-yl)-1-cyclopropyl-9-methyl-4-oxo-4H-quinolizine-3-carboxylate], the MIC with B. thailandensis E264 was 0.5 µg/mL; in the test with E. coli ATCC 25922 (setting [6]), 0.016 µg/mL; with P. aeruginosa ATCC 27853 (setting [3]) it was 1 µg/mL; in the test on S. aureus ATCC 25923 it was 0.016 µg/mL; in test [1] (setting [4]) it was 0.016 µg/mL; in test [2] (setting [5]) it was 0.5 µg/mL.
Turning to `Cc1c(-c2cccc(O)c2)ccn2c(=O)c(C(=O)[O-])cc(C3CC3)c12.[K+]` [Compound 56K salt, potassium 1-cyclopropyl-8-(3-hydroxyphenyl)-9-methyl-4-oxo-4H-quinolizine-3-carboxylate], the MIC in the test on B. thailandensis E264 was 0.25 µg/mL; in the test on E. coli ATCC 25922 (setting [6]) it was 0.032 µg/mL; in the test on P. aeruginosa ATCC 27853 (setting [3]), 2 µg/mL; in the test with S. aureus ATCC 25923 it was 0.008 µg/mL; in test [1] (setting [4]), 0.008 µg/mL.
As for `Cc1c(-c2ccc3c(c2)CCN3)ccn2c(=O)c(C(=O)[O-])cc(C3CC3)c12.[K+]` [Compound 77K salt, potassium 8-(indolin-5-yl)-1-cyclopropyl-9-methyl-4-oxo-4H-quinolizine-3-carboxylate], the MIC in the test with B. thailandensis E264 stood at 1 µg/mL; with P. aeruginosa ATCC 27853 (setting [3]), 4 µg/mL; in the test on A. baumannii ATCC 19606, 0.25 µg/mL; with S. aureus ATCC 25923, 0.016 µg/mL; in test [1] (setting [4]) it was 0.016 µg/mL; in test [2] (setting [5]), 0.5 µg/mL.
Consider `Cc1cn2c(=O)c(C(=O)[O-])cc(C3CC3)c2c(C)c1-c1ccc2[nH]ncc2c1.[K+]` [Compound 88K salt, potassium 8-(1H-indazol-5-yl)-1-cyclopropyl-7,9-dimethyl-4-oxo-4H-quinolizine-3-carboxylate], for which the MIC in the test on B. thailandensis E264 came to 1 µg/mL; in the test with P. aeruginosa ATCC 27853 (setting [3]), 4 µg/mL; in the test on A. baumannii ATCC 19606 it was 0.5 µg/mL; in the test on S. aureus ATCC 25923, 0.008 µg/mL; in test [1] (setting [4]), 0.008 µg/mL; in test [2] (setting [5]) it was 0.5 µg/mL.
Regarding `COc1c(-c2ccc3[nH]ncc3c2)ccn2c(=O)c(C(=O)[O-])cc(C3CC3)c12.[K+]` [Compound 90K salt, potassium 8-(1H-indazol-5-yl)-1-cyclopropyl-9-methoxy-4-oxo-4H-quinolizine-3-carboxylate], the MIC was 2 µg/mL in the test with B. thailandensis E264; 4 µg/mL with P. aeruginosa ATCC 27853 (setting [3]); 0.5 µg/mL in the test on A. baumannii ATCC 19606; 0.008 µg/mL in the test on S. aureus ATCC 25923; 0.008 µg/mL in test [1] (setting [4]); 0.25 µg/mL in test [2] (setting [5]).
For `Cc1c(-c2ccc3c(cnn3C)c2)ccn2c(=O)c(C(=O)[O-])cc(C3CC3)c12.[K+]` [Compound 81K salt, potassium 8-(1-methyl-1H-indazol-5-yl)-1-cyclopropyl-9-methyl-4-oxo-4H-quinolizine-3-carboxylate], the MIC was 0.25 µg/mL with B. thailandensis E264; 0.064 µg/mL in the test with E. coli ATCC 25922 (setting [6]); 2 µg/mL in the test with P. aeruginosa ATCC 27853 (setting [3]); ≤ 0.004 µg/mL with S. aureus ATCC 25923; ≤ 0.004 µg/mL in test [1] (setting [4]); 0.064 µg/mL in test [2] (setting [5]).
As to `C[C@H]1c2cccc(O)c2C(=O)C2=C(O)[C@]3(O)C(=O)C(C(N)=O)=C(O)[C@@H](N(C)C)[C@@H]3[C@@H](O)[C@@H]21` [Doxycycline, reference compound], the MIC in the test on B. thailandensis E264 was 2 µg/mL (≈ 4.5 µM); in the test with E. coli ATCC 25922 (Escherichia coli, ATCC25922; read-out: MIC E. coli ATCC 25922), 1 µg/mL (≈ 2.25 µM); in the test with P. aeruginosa ATCC 27853 (Pseudomonas aeruginosa, ATCC27853; read-out: MIC P. aeruginosa ATCC 27853), > 8 µg/mL; in test [1] (Staphylococcus aureus; read-out: MIC S. aureus ATCC 43300 (MRSA, FQ-S)), 0.25 µg/mL (≈ 0.563 µM); in test [2] (setting [7]), 4 µg/mL (≈ 9 µM).
For the compound `Cc1c(-c2ccc3sc(N)nc3c2)ccn2c(=O)c(C(=O)[O-])cc(C3CC3)c12.[K+]` [Compound 73K salt, potassium 8-(2-aminobenzo[d]thiazol-5-yl)-1-cyclopropyl-9-methyl-4-oxo-4H-quinolizine-3-carboxylate], the MIC in the test with B. thailandensis E264 was 0.5 µg/mL; with E. coli ATCC 25922 (setting [6]), 0.032 µg/mL; in the test on P. aeruginosa ATCC 27853 (setting [3]), 2 µg/mL; in the test with S. aureus ATCC 25923, ≤ 0.004 µg/mL; in test [1] (setting [4]), ≤ 0.004 µg/mL; in test [2] (setting [5]), 0.064 µg/mL.
In the case of `Cc1cn2c(=O)c(C(=O)[O-])cc(C3CC3)c2c(C)c1-c1ccc(N)nc1.[K+]` [Compound 87K salt, potassium 8-(6-amino-pyridin-3-yl)-1-cyclopropyl-7,9-dimethyl-4-oxo-4H-quinolizine-3-carboxylate], the MIC in the test on B. thailandensis E264 amounted to 4 µg/mL; in the test on P. aeruginosa ATCC 27853 (setting [3]), 8 µg/mL; with A. baumannii ATCC 19606, 0.25 µg/mL; with S. aureus ATCC 25923 it was 0.064 µg/mL; in test [1] (setting [4]), 0.064 µg/mL; in test [2] (setting [5]), 8 µg/mL.
As for `Cc1c(-c2ccc(O)c(F)c2)ccn2c(=O)c(C(=O)[O-])cc(C3CC3)c12.[K+]` [Compound 70K salt, potassium 8-(3-fluoro-4-hydroxyphenyl)-1-cyclopropyl-9-methyl-4-oxo-4H-quinolizine-3-carboxylate], the MIC was 0.25 µg/mL in the test with B. thailandensis E264; 0.032 µg/mL with E. coli ATCC 25922 (setting [6]); 1 µg/mL in the test with P. aeruginosa ATCC 27853 (setting [3]); ≤ 0.004 µg/mL in the test with S. aureus ATCC 25923; ≤ 0.004 µg/mL in test [1] (setting [4]); 0.064 µg/mL in test [2] (setting [5]).
Take `CNc1ccc(-c2ccn3c(=O)c(C(=O)[O-])cc(C4CC4)c3c2C)cn1.[K+]` [Compound 78K salt, potassium 8-(6-(methylamino)pyridin-3-yl)-1-cyclopropyl-9-methyl-4-oxo-4H-quinolizine-3-carboxylate]: the MIC with B. thailandensis E264 is 0.5 µg/mL; with E. coli ATCC 25922 (setting [6]) it was 0.064 to 0.125 µg/mL; in the test on P. aeruginosa ATCC 27853 (setting [3]), 2 µg/mL; with S. aureus ATCC 25923 it was 0.008 µg/mL; in test [1] (setting [4]), 0.008 µg/mL.
As for `COc1cc(-c2ccn3c(=O)c(C(=O)[O-])cc(C4CC4)c3c2C)ccc1O.[K+]` [Compound 66K salt, potassium 8-(4-hydroxy-3-methoxyphenyl)-1-cyclopropyl-9-methyl-4-oxo-4H-quinolizine-3-carboxylate], the MIC in the test with B. thailandensis E264 was found to be 1 µg/mL; in the test on P. aeruginosa ATCC 27853 (setting [3]), 4 µg/mL; with A. baumannii ATCC 19606 it was 0.5 µg/mL; in the test with S. aureus ATCC 25923, 0.008 µg/mL; in test [1] (setting [4]), 0.008 µg/mL; in test [2] (setting [5]), 0.25 µg/mL.
`Cc1c(-c2ccc(O)cc2)c(F)cn2c(=O)c(C(=O)[O-])cc(C3CC3)c12.[K+]` [Compound 61K salt, potassium 8-(4-hydroxyphenyl)-1-cyclopropyl-7-fluoro-9-methyl-4-oxo-4H-quinolizine-3-carboxylate]: the MIC in the test with B. thailandensis E264 turned out to be 0.5 µg/mL; with E. coli ATCC 25922 (setting [6]), 0.032 µg/mL; in the test on P. aeruginosa ATCC 27853 (setting [3]) it was 2 µg/mL; in test [2] (setting [5]), 0.064 µg/mL.
With `Cc1c(-c2ccc3[nH]nc(C4CC4)c3c2)ccn2c(=O)c(C(=O)[O-])cc(C3CC3)c12.[K+]` [Compound 71K salt, potassium 8-(3-cyclopropyl-1H-indazol-5-yl)-1-cyclopropyl-9-methyl-4-oxo-4H-quinolizine-3-carboxylate], the MIC was 2 µg/mL with B. thailandensis E264; > 8 µg/mL with P. aeruginosa ATCC 27853 (setting [3]); 0.5 µg/mL in the test with A. baumannii ATCC 19606; ≤ 0.004 µg/mL in the test with S. aureus ATCC 25923; ≤ 0.004 µg/mL in test [1] (setting [4]).
With `CNc1ccc(-c2ccn3c(=O)c(C(=O)[O-])cc(C4CC4)c3c2C)cc1C.[K+]` [Compound 69K salt, potassium 8-(3-methyl-4-(methylamino)phenyl)-1-cyclopropyl-9-methyl-4-oxo-4H-quinolizine-3-carboxylate], the MIC in the test with B. thailandensis E264 is 1 µg/mL; in the test on P. aeruginosa ATCC 27853 (setting [3]), 4 µg/mL; in the test on A. baumannii ATCC 19606, 0.25 to 0.5 µg/mL; in the test on S. aureus ATCC 25923 it was ≤ 0.004 µg/mL; in test [1] (setting [4]) it was ≤ 0.004 µg/mL; in test [2] (setting [5]), 0.25 µg/mL.
For `O=C(O)c1cn(C2CC2)c2cc(N3CCNCC3)c(F)cc2c1=O` [Ciprofloxacin, reference compound], the MIC in test [2] (setting [7]) is > 8 µg/mL.
As for `Cc1c(-c2ccc(N3CCNCC3)nc2)ccn2c(=O)c(C(=O)[O-])cc(C3CC3)c12.[K+]` [Compound 84K salt, potassium 8-(6-(piperazin-1-yl)pyridin-3-yl)-1-cyclopropyl-9-methyl-4-oxo-4H-quinolizine-3-carboxylate], the MIC with B. thailandensis E264 is 8 µg/mL; with E. coli ATCC 25922 (setting [6]) it was 0.125 to 0.25 µg/mL; with P. aeruginosa ATCC 27853 (setting [3]), 8 µg/mL; with A. baumannii ATCC 19606 it was 2 µg/mL; in test [2] (setting [5]) it was 2 µg/mL.
